From patent publication US10780057B2, “Casein-based silica dual drug-loading composite microcapsule and preparation method therefor” (SHAANXI UNIVERSITY OF SCIENCE & TECHNOLOGY, priority 2016, dated 2020)

Key:
[1] = Drug loading efficiency of casein-based silica dual drug-loaded composite microcapsule; format: physicochemical; conditions: casein-based SiO2 dual-loaded microcapsules; drug A ibuprofen on outer wall of capsule, drug B aspirin in core of capsule
Description: (§1) The samples used in Table 1 were the casein-based SiO2 dual-loaded microcapsules obtained by loading the drug A-buprofen on the outer wall of the capsule and the drug B aspirin in the core of the capsule.

[2] = Cumulative drug release from casein-based silica dual drug-loaded composite microcapsule; format: physicochemical; conditions: after 40 h; casein-based SiO2 dual-loaded microcapsules; drug A ibuprofen on outer wall of capsule, drug B aspirin in core of capsule
Description: as §1

## CC(=O)Oc1ccccc1C(=O)O [Drug B: aspirin, aspirin]
[1]
  Drug loading efficiency (%): 86%
[2]
  40 h cumulative release rate (%): 60%

## CC(C)Cc1ccc(C(C)C(=O)O)cc1 (stereo not shown) [Drug A: ibuprofen, ibuprofen]
[1]
  Drug loading efficiency (%): 69%
[2]
  40 h cumulative release rate (%): 88%
